Laboratory results as given in patent US6355653B1, “Amino-triazolopyridine derivatives” (Hoffmann-La Roche Inc., priority 1999, dated 2002).

molecular target: T1, human adenosine A2A receptor (Homo sapiens, UniProt P29274); experiment: [3H]-SCH-58261 binding assay at the human adenosine A2A receptor; settings: [3H]-SCH-58261 (1 nM), membranes of CHO cells recombinantly expressing the human A2A receptor; Ki by Cheng-Prussoff; read-out: hA2ApKi (converted)
T1 construct: expressed in transfected cells; host or cells: CHO cells, Semliki Forest virus expression system; washed membrane preparation
Description: Human Adenosine A2A Receptor
The human adenosine A2A receptor was recombinantly expressed in chinese hamster ovary (CHO) cells using the semliki forest virus expression system. Cells were harvested, washed twice by centrifugation, homogenised and again washed by centrifugation. The final washed membrane pellet was suspended in a Tris (50 mM) buffer containing 120 mM NaCl, […] and 10 mM MgCl2 (pH 7.4) (buffer A). The [^3H]-SCH-58261 (Dionisotti et al., 1997, Br J Pharmacol 121, 353; 1 nM) binding assay was carried out in 96-well plates in the presence of 2.5 μg of membrane protein, 0.5 mg of Ysi-poly-1-lysine SPA beads io and 0.1U adenosine deaminase in a final volume of 200 μl of buffer A. Non-specific binding was defined using xanthine amine congener (XAC; 2 μM). Compounds were tested at 10 concentrations from 10 μM-0.3 nM. All assays were conducted in duplicate and repeated at least two times. Assay plates were incubated for lhour at room temperature before centrifugation and then bound ligand determined using a Packard Topcount scintillation counter. IC50 values were calculated using a non-linear curve fitting program and Ki values calculated using the Cheng-Prussoff equation.

T1 sequence (P29274 whole entry): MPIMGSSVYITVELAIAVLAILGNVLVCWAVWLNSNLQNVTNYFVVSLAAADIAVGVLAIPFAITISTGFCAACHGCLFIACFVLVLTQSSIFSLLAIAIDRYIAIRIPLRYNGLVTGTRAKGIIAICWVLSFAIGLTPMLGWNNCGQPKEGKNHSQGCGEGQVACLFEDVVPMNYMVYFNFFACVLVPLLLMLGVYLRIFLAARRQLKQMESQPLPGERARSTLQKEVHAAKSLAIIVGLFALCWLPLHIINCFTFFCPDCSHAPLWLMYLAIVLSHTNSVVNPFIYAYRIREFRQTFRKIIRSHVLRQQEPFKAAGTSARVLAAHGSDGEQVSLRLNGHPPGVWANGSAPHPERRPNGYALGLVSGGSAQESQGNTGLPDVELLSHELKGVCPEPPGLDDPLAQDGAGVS

Ki [nM] | Structure (SMILES)
25.1 | COc1ccc(-c2cc(N)n3nc(-c4ccco4)nc3c2)cc1OC [7-(3,4-Dimethoxy-phenyl)-2-furan-2-yl-[1,2,4]triazolo[1,5-a]pyridin-5-ylamine]
7.94 | CCc1cc(-c2cc(N)n3nc(-c4ccccn4)nc3c2)ccn1 [7-(2-Ethyl-pyridin-4-yl)-2-pyridin-2-yl-[1,2,4]triazolo[1,5-a]pyridin-5-ylamine]
7.94 | Nc1cc(-c2ccc(Cl)c(Cl)c2)cc2nc(C3=CCCO3)nn12 [7-(3,4-Dichloro-phenyl)-2-(4,5-dihydro-furan-2-yl)-[1,2,4]triazolo[1,5-a]pyridin-5-ylamine]
31.6 | Cc1cc(-c2cc(N)n3nc(-c4ccccn4)nc3c2)ccn1 [7-(2-Methyl-pyridin-4-yl)-2-pyridin-2-yl-[1,2,4]triazolo[1,5-a]pyridin-5-ylamine]
10 | Cc1cccc(-c2cc(N)n3nc(-c4ccco4)nc3c2)c1 [2-Furan-2-yl-7-m-tolyl-[1,2,4]triazolo[1,5-a]pyridin-5-ylamine]
15.8 | Nc1cc(-c2ccnc(F)c2)cc2nc(-c3ccco3)nn12 [7-(2-Fluoro-pyridin-4-yl)-2-furan-2-yl-[1,2,4]triazolo[1,5-a]pyridin-5-ylamine]
25.1 | Nc1cc(-c2cccc(F)c2)cc2nc(C3=CCCO3)nn12 [2-(4,5-Dihydro-furan-2-yl)-7-(3-fluoro-phenyl)-[1,2,4]triazolo[1,5-a]pyridin-5-ylamine]
31.6 | Cc1cccc(-c2cc(N)n3nc(C4=CCCO4)nc3c2)c1 [2-(4,5-Dihydro-furan-2-yl)-7-m-tolyl-[1,2,4]triazolo[1,5-a]pyridin-5-ylamine]
12.6 | COc1ccc(-c2cc(N)n3nc(-c4ccco4)nc3c2)cn1 [2-Furan-2-yl-7-(6-methoxy-pyridin-3-yl)-[1,2,4]triazolo[1,5-a]pyridin-5-ylamine]

test system: not given; experiment: not given; settings: not given

melting point [°C] | Structure (SMILES)
278 to 280 | Nc1cc(-c2ccccn2)cc2nc(-c3ccccc3)nn12 [Example 23, 2-Phenyl-7-pyridin-2-yl-[1,2,4]triazolo[1,5-a]pyridin-5-ylamine]
257 to 260 | Nc1cc(-c2cc(Cl)cc(Cl)c2)cc2nc(-c3ccco3)nn12 [Example 5, 7-(3,5-Dichloro-phenyl)-2-furan-2-yl-[1,2,4]triazolo[1,5-a]pyridin-5-ylamine]
184 to 186 | CCc1cc(-c2cc(N)n3nc(-c4ccco4)nc3c2)ccn1 [Example 8, 7-(2-Ethyl-pyridin-4-yl)-2-furan-2-yl-[1,2,4]triazolo[1,5-a]pyridin-5-ylamine]
214 to 216 | Nc1cc(-c2ccccc2)cc2nc(-c3ccccc3)nn12 [Example 25, 2,7-Diphenyl-[1,2,4]triazolo[1,5-a]pyridin-5-ylamine]
201 to 203 | Nc1cc(-c2cccnc2)cc2nc(-c3ccccc3)nn12 [Example 24, 2-Phenyl-7-pyridin-3-yl-[1,2,4]triazolo[1,5-a]pyridin-5-ylamine]
207 to 210 | Nc1cc(-c2ccncc2)cc2nc(-c3ccccc3)nn12 [Example 22, 2-Phenyl-7-pyridin-4-yl-[1,2,4]triazolo[1,5-a]pyridin-5-ylamine]
275 to 277 | Cc1cc(-c2nc3cc(-c4ccncc4)cc(N)n3n2)oc1C [Example 16, 2-(4,5-Dimethyl-furan-2-yl)-7-pyridin-4-yl-[1,2,4]triazolo[1,5-a]pyridin-5-ylamine]
100 to 101 | Cc1cc(-c2cc(N)n3nc(-c4ccco4)nc3c2)ccn1 [Example 7, 2-Furan-2-yl-7-(2-methyl-pyridin-4-yl)-[1,2,4]triazolo[1,5-a]pyridin-5-ylamine]
